In US7718764B2, “Biologically active peptide [sequence] derivatives” (CMS Peptides Patent Holding Company Limited, priority 2004, dated 2010):

Tests used:
Masugi nephritis rabbits [1] = experiment: Masugi nephritis in rabbits: urine protein; format: in vivo; details: 0.1 mg/kg/day i.v.
Method: (§1) Twenty-two healthy rabbits were randomized into 5 groups: peptide (107.3 μg/kg/day and 58.5 μg/kg/day, 4 rabbits per group), dexamethasone (0.1 mg/kg/day, 4 rabbits), saline treatment (1 ml/day, 7 rabbits), and normal healthy (3 rabbits). Before the establishment of a disease state in the rabbits, measurements of serum BUN, creatinine, and urine protein over 24 hours were taken for each rabbit. If there was no abnormality in these measurements, the Masugi nephritis model was established in experimental rabbits by intravenous injection of sheep anti-rabbit renal cortex antiserum via the auricular vein, 0.5 ml per injection, one injection every 30 minutes, for a total of 4 injections per rabbit. The normal healthy (control) rabbit group was injected with saline in the same manner. Intravenous administration of the test substances via the auricular vein was started on the day after the injection of the antiserum, once per day, 1 ml per injection, for 30 consecutive days.
Urine was collected from each rabbit over a 24 hour period once per week and the protein content determined by the sulfosalicylic acid method.
(§2) Statistical significance was determined by the t-test of the SPSS software.

Masugi nephritis rabbits [2] = experiment: Masugi nephritis in rabbits: clearance of sheep anti-rabbit renal cortex IgG antibody (glomerular immunofluorescence); format: in vivo; details: 0.1 mg/kg/day i.v. 30 days, saline treatment 8.7 ± 0.9
Method: as §1, with “Before” for “Twenty-two healthy rabbits were randomized into 5 groups: peptide (107.3 μg/kg/day and 58.5 μg/kg/day, 4 rabbits per group), dexamethasone (0.1 mg/kg/day, 4 rabbits), saline treatment (1 ml/day, 7 rabbits), and normal healthy (3 rabbits). Before”
For observation of the effects of peptides on the clearance of sheep anti-rabbit renal cortex IgG antibody from Masugi nephritis rabbits, on the day after the last test substance administration, the rabbits were sacrificed by suffocation and the right kidney was extirpated, freeze-edged and then immunofluorescently stained for the presence of sheep IgG. The fluorescence-positive area of each glomerulus was counted. Thirty glomeruli per rabbit were examined and the average positive area per glomerulus was calculated.
as §2

mice T-lymphocyte = experiment: Mice T-lymphocyte transformation induced by ConA in vitro (spleen cells, MTT); format: cell-based, BALB/c mice; details: for OD: Table 2, ConA 5 μg/ml, 68 hrs
Method: The spleens from healthy mice were isolated aseptically and manually dispersed in 10% FBS RPMI-1640 solution using an injection needle. The dispersed cell suspension was further sieved through a 100-gauge 150 μm diameter stainless steel sieve. The spleen cell suspension was adjusted to a density of 4×10^6/ml and was aliquoted onto 96-well cell culture plates at 100 μl/well. Peptides were dissolved in plain RPMI-1640. The design of the groupings was as given below.
Peptide group: 100 μl working peptide solution+75 μl spleen cell suspension+25 μl ConA working solution.
ConA control group: 100 μl RPMI-1640+75 μl spleen cell suspension+25 μl ConA working solution.
Negative control group: 125 μl RPMI-1640+75 μl spleen cell suspension.
The final concentration of ConA in the well was 5 μg/ml. The final concentrations of peptides in the well were 80 μg/ml, 16 μg/ml, 3.2 μg/ml, 0.64 μg/ml, and 0.128 μg/ml. Each peptide group contained three parallel wells, and eight or twelve wells for the control groups. The cells were incubated for 68 hrs at 37° C., 5% CO2. MTT method was used to obtain a reading of OD570 nm of each well referenced at 630 nm on an ELISA reader.

In the case of “Dexamethasone Sodium Phosphate [reference compound]”, the “proteinuria Week 0” value (Masugi nephritis rabbits [1]; Week 0, saline treatment 11.72 ± 3.18) was 9.48 ± 8.46 mg/dL, the “proteinuria Week 1” value (Masugi nephritis rabbits [1]; Week 1, saline treatment 122 ± 91) was 29 ± 12 mg/dL and the “proteinuria Week 2” value (Masugi nephritis rabbits [1]; Week 2, saline treatment 160 ± 138) was 13.6 ± 6.3 mg/dL. The “proteinuria Week 3” value (Masugi nephritis rabbits [1]; Week 3, saline treatment 145 ± 33) was 13.7 ± 3.1 mg/dL, the “proteinuria Week 4” value (Masugi nephritis rabbits [1]; Week 4, saline treatment 157 ± 71) was 25 ± 19 mg/dL and the Positive area count/glomerulus (Masugi nephritis rabbits [2]) was 7.5 ± 1.0.

With VANPK [CMS-010.105] the OD (mice T-lymphocyte; peptide 0.64 μg/ml, ConA control 0.467 ± 0.043) was 0.386 ± 0.008, the OD (mice T-lymphocyte; peptide 80 μg/ml, MTT OD570 nm ref 630 nm, ConA control 0.467 ± 0.043, negative control 0.134 ± 0.011) was 0.407 ± 0.019 and the “Effect on mice T-lymphocyte transformation induced by ConA in vitro” value (mice T-lymphocyte; at suitable concentrations, vs ConA positive control P<0.05) was “suppress”.
